Tested on: 475296-252-R-J1-PDC spheroid viability
Assay: Anticancer human tumor 475296-252-R-J1-PDC patient-derived rectal carcinoma cell line growth inhibition [PI3K]
Conditions: spheroids with HUVEC and MSC; for IC50: curve of first compound; for viability, T/C: stronger effect = lower value
How it was run: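 High-throughput combination screen: PI3K inhibitors crossed with targeted small molecules on complex spheroids of tumor cells, HUVEC and MSCs at 37 degrees C, 5% CO2. Top concentration was at or near clinical Cmax (otherwise 10 microM), with half-log decrements.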
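Further: spheroids exposed to agents for seven days before readout.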

In the case of `CNC(=O)c1ccc(N2C(=S)N(c3ccc(C#N)c(C(F)(F)F)c3)C(=O)C2(C)C)cc1F` + Cc1nc(NC(=O)N2CCCC2C(N)=O)sc1-c1ccnc(C(C)(C)C(F)(F)F)c1, the IC50 (second compound 0.0316 µM) is reported as > 10000 nM, the IC50 (second compound 0.1 µM) is reported as > 10000 nM and the IC50 (second compound 0.316 µM) is reported as > 10000 nM. For the same compound, the IC50 (second compound 1 µM) was > 10000 nM, the IC50 (second compound 3.16 µM) was > 10000 nM and the IC50 (second compound 10 µM) was > 10000 nM. The viability, T/C (second compound 0.0316 µM, first compound 0.0316 µM) was 101%, the viability, T/C (second compound 0.0316 µM, first compound 0.1 µM) was 88.1% and the viability, T/C (second compound 0.0316 µM, first compound 0.316 µM) was 98.8%. The viability, T/C (second compound 0.0316 µM, first compound 1 µM) was 87.7%, the viability, T/C (second compound 0.0316 µM, first compound 3.16 µM) was 95.7% and the viability, T/C (second compound 0.0316 µM, first compound 10 µM) was 95.2%. The viability, T/C (second compound 0.1 µM, first compound 0.0316 µM) was 102%, the viability, T/C (second compound 0.1 µM, first compound 0.1 µM) was 91.8% and the viability, T/C (second compound 0.1 µM, first compound 0.316 µM) was 99.6%. The viability, T/C (second compound 0.1 µM, first compound 1 µM) was 86.6%, the viability, T/C (second compound 0.1 µM, first compound 3.16 µM) was 111% and the viability, T/C (second compound 0.1 µM, first compound 10 µM) was 114%. It also gave a viability, T/C (second compound 0.316 µM, first compound 0.0316 µM) of 92.2%, a viability, T/C (second compound 0.316 µM, first compound 0.1 µM) of 101% and a viability, T/C (second compound 0.316 µM, first compound 0.316 µM) of 86.1%. For the same compound, the viability, T/C (second compound 0.316 µM, first compound 1 µM) was 104%, the viability, T/C (second compound 0.316 µM, first compound 3.16 µM) was 101% and the viability, T/C (second compound 0.316 µM, first compound 10 µM) was 108%. The viability, T/C (second compound 1 µM, first compound 0.0316 µM) was 90.5%, the viability, T/C (second compound 1 µM, first compound 0.1 µM) was 104% and the viability, T/C (second compound 1 µM, first compound 0.316 µM) was 95.6%. The viability, T/C (second compound 1 µM, first compound 1 µM) was 102%, the viability, T/C (second compound 1 µM, first compound 3.16 µM) was 89.8% and the viability, T/C (second compound 1 µM, first compound 10 µM) was 109%. The viability, T/C (second compound 3.16 µM, first compound 0.0316 µM) was 81.1%, the viability, T/C (second compound 3.16 µM, first compound 0.1 µM) was 104% and the viability, T/C (second compound 3.16 µM, first compound 0.316 µM) was 92.3%. The viability, T/C (second compound 3.16 µM, first compound 1 µM) was 98.1%, the viability, T/C (second compound 3.16 µM, first compound 3.16 µM) was 108% and the viability, T/C (second compound 3.16 µM, first compound 10 µM) was 97.5%. For the same compound, the viability, T/C (second compound 10 µM, first compound 0.0316 µM) was 80.8%, the viability, T/C (second compound 10 µM, first compound 0.1 µM) was 89.5% and the viability, T/C (second compound 10 µM, first compound 0.316 µM) was 104%. It also gave a viability, T/C (second compound 10 µM, first compound 1 µM) of 88%, a viability, T/C (second compound 10 µM, first compound 3.16 µM) of 98.9% and a viability, T/C (second compound 10 µM, first compound 10 µM) of 90.7%.
For `Cn1cnc2c(F)c(Nc3ccc(Br)cc3Cl)c(C(=O)NOCCO)cc21` + Cc1nc(NC(=O)N2CCCC2C(N)=O)sc1-c1ccnc(C(C)(C)C(F)(F)F)c1, the IC50 (second compound 0.0316 µM) was > 3000 nM, the IC50 (second compound 0.1 µM) was > 3000 nM and the IC50 (second compound 0.316 µM) was 2990 nM. The IC50 (second compound 1 µM) was 760 nM, the IC50 (second compound 3.16 µM) was 463 nM and the IC50 (second compound 10 µM) was 77 nM. For the same compound, the viability, T/C (second compound 0.0316 µM, first compound 0.00949 µM) was 102%, the viability, T/C (second compound 0.0316 µM, first compound 0.03 µM) was 81.9% and the viability, T/C (second compound 0.0316 µM, first compound 0.0949 µM) was 85.7%. For the same compound, the viability, T/C (second compound 0.0316 µM, first compound 0.3 µM) was 75.7%, the viability, T/C (second compound 0.0316 µM, first compound 0.949 µM) was 76.6% and the viability, T/C (second compound 0.0316 µM, first compound 3 µM) was 61.8%. It also gave a viability, T/C (second compound 0.1 µM, first compound 0.00949 µM) of 91.7%, a viability, T/C (second compound 0.1 µM, first compound 0.03 µM) of 78.7% and a viability, T/C (second compound 0.1 µM, first compound 0.0949 µM) of 93.2%. It also gave a viability, T/C (second compound 0.1 µM, first compound 0.3 µM) of 73.2%, a viability, T/C (second compound 0.1 µM, first compound 0.949 µM) of 74.6% and a viability, T/C (second compound 0.1 µM, first compound 3 µM) of 58%. The viability, T/C (second compound 0.316 µM, first compound 0.00949 µM) was 89.4%, the viability, T/C (second compound 0.316 µM, first compound 0.03 µM) was 89.8% and the viability, T/C (second compound 0.316 µM, first compound 0.0949 µM) was 73.4%. It also gave a viability, T/C (second compound 0.316 µM, first compound 0.3 µM) of 72.9%, a viability, T/C (second compound 0.316 µM, first compound 0.949 µM) of 64.3% and a viability, T/C (second compound 0.316 µM, first compound 3 µM) of 48.3%. For the same compound, the viability, T/C (second compound 1 µM, first compound 0.00949 µM) was 79.9%, the viability, T/C (second compound 1 µM, first compound 0.03 µM) was 89.3% and the viability, T/C (second compound 1 µM, first compound 0.0949 µM) was 69%. The viability, T/C (second compound 1 µM, first compound 0.3 µM) was 63.9%, the viability, T/C (second compound 1 µM, first compound 0.949 µM) was 47% and the viability, T/C (second compound 1 µM, first compound 3 µM) was 35.9%. The viability, T/C (second compound 3.16 µM, first compound 0.00949 µM) was 75.8%, the viability, T/C (second compound 3.16 µM, first compound 0.03 µM) was 73.6% and the viability, T/C (second compound 3.16 µM, first compound 0.0949 µM) was 66.2%. It also gave a viability, T/C (second compound 3.16 µM, first compound 0.3 µM) of 59.9%, a viability, T/C (second compound 3.16 µM, first compound 0.949 µM) of 36.4% and a viability, T/C (second compound 3.16 µM, first compound 3 µM) of 23.8%. The viability, T/C (second compound 10 µM, first compound 0.00949 µM) was 83.9%, the viability, T/C (second compound 10 µM, first compound 0.03 µM) was 67% and the viability, T/C (second compound 10 µM, first compound 0.0949 µM) was 45.6%. The viability, T/C (second compound 10 µM, first compound 0.3 µM) was 28.2%, the viability, T/C (second compound 10 µM, first compound 0.949 µM) was 18.7% and the viability, T/C (second compound 10 µM, first compound 3 µM) was 5.93%.
